Data taken from US20240390340A1 (INCYTE CORPORATION, priority 2023, published 2024).
Read-outs that look alike come from different tables or passages of the source.

What was measured:
KRAS G12V = KRAS G12V (Homo sapiens, UniProt P01116, G12V); assay: GDP-GTP exchange assay (bodipy-GDP/GppNHp, SOS1), KRAS G12V; format: biochemical
KRAS G12D = KRAS G12D (Homo sapiens, UniProt P01116, G12D); assay: GDP-GTP exchange assay (bodipy-GDP/GppNHp, SOS1), KRAS G12D; format: biochemical
[1] = KRAS G12V mutant, value for the most potent isomer quoted for certain compounds, read-out: G12V (KRAS G12V exchange assay IC50)
[2] = bodipy-loaded KRAS G12D 2.5 nM, 4 h pre-incubation, value for the most potent isomer quoted for certain compounds, read-out: G12D (KRAS G12D exchange assay IC50)

Chain of KRAS G12D (P01116 1-188 isoform P01116-2 G12D): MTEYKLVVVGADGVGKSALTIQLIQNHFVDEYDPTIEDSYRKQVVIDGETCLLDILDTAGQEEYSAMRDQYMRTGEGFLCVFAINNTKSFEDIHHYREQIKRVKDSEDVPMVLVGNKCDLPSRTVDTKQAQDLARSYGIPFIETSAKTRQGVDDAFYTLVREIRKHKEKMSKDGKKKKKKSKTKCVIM
Chain of KRAS G12V (P01116 1-188 isoform P01116-2 G12V): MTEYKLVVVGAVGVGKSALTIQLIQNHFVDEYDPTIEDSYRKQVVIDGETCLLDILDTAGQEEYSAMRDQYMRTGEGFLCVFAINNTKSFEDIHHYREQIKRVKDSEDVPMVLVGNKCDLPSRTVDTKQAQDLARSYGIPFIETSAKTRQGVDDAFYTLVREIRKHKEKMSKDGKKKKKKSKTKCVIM

Row | Structure (SMILES) | IC50 (KRAS G12V; [1]) [nM] | IC50 (KRAS G12D; [2]) [nM] | IC50 (KRAS G12V; Table H, column G12V, for compounds isolated as several atropisomers/diastereoisomers the value for the most potent isomer is quoted, read-out: KRAS G12V exchange assay IC50) [nM] | IC50 (KRAS G12D; Table H, column G12D, for compounds isolated as several atropisomers/diastereoisomers the value for the most potent isomer is quoted, read-out: KRAS G12D exchange assay IC50) [nM]
1 | Cc1nc2c(F)c(-c3cccc(Cl)c3Cl)c(CCC#N)cc2c2c1cc([C@H]1C[C@H](n3cc(-c4ccccc4)cn3)CN1C(=O)C1CC1)n2[C@H]1[C@H]2CN[C@@H]1C2 [Example 354] | 100 to 1000 | ≤ 100 |  | 
2 | Cc1nc2c(F)c(-c3cccc(Cl)c3Cl)c(CCC#N)cc2c2c1cc([C@H]1C[C@H](O[C@@H]3CCOC3)CN1C(=O)C1CC1)n2[C@H]1[C@H]2CN[C@@H]1C2 [Example 30] |  |  | ≤ 100 | ≤ 100
3 | Cc1nc(CO[C@H]2C[C@H](c3cc4c(C)nc5c(F)c(-c6cccc(Cl)c6Cl)c(CCC#N)cc5c4n3[C@H]3[C@H]4CN[C@@H]3C4)N(C(=O)C3CC3)C2)sc1C [Example 358] | ≤ 100 | ≤ 100 |  | 
4 | CN1CC=C(c2nc3c(F)c(-c4cccc(Cl)c4Cl)c(CCC#N)cc3c3c2cc([C@H]2C[C@H](OCc4c(F)cccc4F)CN2C(=O)C2CC2)n3[C@H]2[C@H]3CN[C@@H]2C3)CC1 [Example 219] | ≤ 100 | ≤ 100 |  | 
5 | Cc1nc2c(F)c(-c3cccc(Cl)c3Cl)c(CCC#N)cc2c2c1cc([C@H]1C[C@H](Oc3cc(N4CC(OC(F)F)C4)ccn3)CN1C(=O)C1CC1)n2[C@H]1[C@H]2CN[C@@H]1C2 [Example 369] | ≤ 100 | ≤ 100 |  | 
6 | Cc1nc2c(F)c(-c3cccc(Cl)c3Cl)c(CCC#N)cc2c2c1cc([C@H]1C[C@H](Oc3ccc(C#N)nc3)CN1C(=O)C1CC1)n2[C@H]1[C@H]2CN[C@@H]1C2 [Example 290] | ≤ 100 | ≤ 100 |  | 
7 | Cc1nc2c(F)c(-c3cccc(Cl)c3Cl)c(CCC#N)cc2c2c1cc([C@H]1C[C@H](Oc3ccnc4c3CCO4)CN1C(=O)C1CC1)n2[C@H]1[C@H]2CN[C@@H]1C2 [Example 329] | ≤ 100 | ≤ 100 |  | 
8 | Cc1nc2c(F)c(-c3cccc(Cl)c3Cl)c(CCC#N)cc2c2c1cc([C@H]1C[C@H](Oc3ccc(N)nc3)CN1C(=O)C1CC1)n2[C@H]1[C@H]2CN[C@@H]1C2 [Example 296] | ≤ 100 | ≤ 100 |  | 
9 | Cc1nc2c(F)c(-c3cccc(Cl)c3Cl)c(CCC#N)cc2c2c1cc([C@H]1C[C@H](OCc3ccc(C(F)(F)F)nc3)CN1C(=O)C1CC1)n2[C@H]1[C@H]2CN[C@@H]1C2 [Example 260] | ≤ 100 | ≤ 100 |  | 
10 | CCn1cc(CO[C@H]2C[C@H](c3cc4c(C)nc5c(F)c(-c6cccc(Cl)c6Cl)c(CCC#N)cc5c4n3[C@H]3[C@H]4CN[C@@H]3C4)N(C(=O)C3CC3)C2)nn1 [Example 231] | ≤ 100 | ≤ 100 |  | 
11 | Cc1nc2c(F)c(-c3cccc(Cl)c3Cl)c(CCC#N)cc2c2c1cc([C@H]1C[C@H](n3cc4c(n3)CCC4)CN1C(=O)C1CC1)n2[C@H]1[C@H]2CN[C@@H]1C2 [Example 356] | ≤ 100 | ≤ 100 |  | 
12 | Cc1nc2c(F)c(-c3cccc(Cl)c3Cl)c(CCC#N)cc2c2c1cc([C@H]1C[C@H](n3ccnn3)CN1C(=O)C1CC1)n2[C@H]1[C@H]2CN[C@@H]1C2 [Example 342] | ≤ 100 | ≤ 100 |  | 
13 | COC(=O)c1ncn([C@H]2C[C@H](c3cc4c(C)nc5c(F)c(-c6cccc(Cl)c6Cl)c(CCC#N)cc5c4n3[C@H]3[C@H]4CN[C@@H]3C4)N(C(=O)C3CC3)C2)n1 [Example 348] | ≤ 100 | ≤ 100 |  | 

Now from value to compound:

Row | IC50 (KRAS G12V; [1]) [nM] | IC50 (KRAS G12D; [2]) [nM] | IC50 (KRAS G12V; Table H, column G12V, for compounds isolated as several atropisomers/diastereoisomers the value for the most potent isomer is quoted, read-out: KRAS G12V exchange assay IC50) [nM] | IC50 (KRAS G12D; Table H, column G12D, for compounds isolated as several atropisomers/diastereoisomers the value for the most potent isomer is quoted, read-out: KRAS G12D exchange assay IC50) [nM] | Structure (SMILES)
14 | ≤ 100 | ≤ 100 |  |  | Cc1nc2c(F)c(-c3cccc(Cl)c3Cl)c(CCC#N)cc2c2c1cc([C@H]1C[C@H](OCc3ccnn3C(F)(F)F)CN1C(=O)C1CC1)n2[C@H]1[C@H]2CN[C@@H]1C2 [Example 312]
15 | ≤ 100 | ≤ 100 |  |  | Cc1nc2c(F)c(-c3cccc(Cl)c3Cl)c(CCC#N)cc2c2c1cc([C@H]1C[C@H](OCc3cn(C4CC4)nn3)CN1C(=O)C1CC1)n2[C@H]1[C@H]2CN[C@@H]1C2 [Example 235]
16 | ≤ 100 | ≤ 100 |  |  | Cc1nc2c(F)c(-c3cccc(Cl)c3Cl)c(CCC#N)cc2c2c1cc([C@H]1C[C@H](Oc3ccccc3C#N)CN1C(=O)C1CC1)n2[C@H]1[C@H]2CN[C@@H]1C2 [Example 249]
17 | ≤ 100 | ≤ 100 |  |  | Cc1nc2c(F)c(-c3cccc(Cl)c3Cl)c(CCC#N)cc2c2c1cc([C@H]1C[C@H](n3cc(C4CCCO4)nn3)CN1C(=O)C1CC1)n2[C@H]1C2CNC1C2 (stereo partly drawn) [Example 180]
18 | ≤ 100 | ≤ 100 |  |  | Cc1nc2c(F)c(-c3cccc(Cl)c3Cl)c(CCC#N)cc2c2c1cc([C@H]1C[C@H](n3cc(C4CC4)cn3)CN1C(=O)C1CC1)n2[C@H]1[C@H]2CN[C@@H]1C2 [Example 429]
19 | ≤ 100 | 100 to 1000 |  |  | Cc1cccc(C(F)(F)F)c1CO[C@H]1C[C@H](c2cc3c(C)nc4c(F)c(-c5cccc(Cl)c5Cl)c(CCC#N)cc4c3n2[C@H]2[C@H]3CN[C@@H]2C3)N(C(=O)C2CC2)C1 [Example 124]
20 | ≤ 100 | ≤ 100 |  |  | Cc1ncn([C@H]2C[C@H](c3cc4c(C)nc5c(F)c(-c6cccc(Cl)c6Cl)c(CCC#N)cc5c4n3[C@H]3[C@H]4CN[C@@H]3C4)N(C(=O)C3CC3)C2)n1 [Example 277]
21 | ≤ 100 | ≤ 100 |  |  | Cc1csc(CO[C@H]2C[C@H](c3cc4c(C)nc5c(F)c(-c6cccc(Cl)c6Cl)c(CCC#N)cc5c4n3[C@H]3[C@H]4CN[C@@H]3C4)N(C(=O)C3CC3)C2)n1 [Example 359]
22 | ≤ 100 | ≤ 100 |  |  | CC(=O)N(C)Cc1cn([C@H]2C[C@H](c3cc4c(C)nc5c(F)c(-c6cccc(Cl)c6Cl)c(CCC#N)cc5c4n3[C@H]3[C@H]4CN[C@@H]3C4)N(C(=O)C3CC3)C2)nn1 [Example 271]
23 | ≤ 100 | ≤ 100 |  |  | Cc1nc2c(F)c(-c3cccc(Cl)c3Cl)c(CCC#N)cc2c2c1cc([C@H]1C[C@H](Oc3cccc(C(=O)N(C)C)c3)CN1C(=O)C1CC1)n2[C@H]1[C@H]2CN[C@@H]1C2 [Example 174]
24 | ≤ 100 | ≤ 100 |  |  | Cc1ccn([C@H]2C[C@H](c3cc4c(C)nc5c(F)c(-c6cccc(Cl)c6Cl)c(CCC#N)cc5c4n3[C@H]3[C@H]4CN[C@@H]3C4)N(C(=O)C3CC3)C2)n1 [Example 315]
25 | ≤ 100 | ≤ 100 |  |  | Cc1nc(O[C@H]2C[C@H](c3cc4c(C)nc5c(F)c(-c6cccc(Cl)c6Cl)c(CCC#N)cc5c4n3[C@H]3[C@H]4CN[C@@H]3C4)N(C(=O)C3CC3)C2)ccc1C#N [Example 306]
26 | ≤ 100 | ≤ 100 |  |  | Cc1csnc1CO[C@H]1C[C@H](c2cc3c(C)nc4c(F)c(-c5cccc(Cl)c5Cl)c(CCC#N)cc4c3n2[C@H]2[C@H]3CN[C@@H]2C3)N(C(=O)C2CC2)[C@@H]1C [Example 232]
27 | ≤ 100 | ≤ 100 |  |  | COC1CN(c2cc(O[C@H]3C[C@H](c4cc5c(C)nc6c(F)c(-c7cccc(Cl)c7Cl)c(CCC#N)cc6c5n4[C@H]4[C@H]5CN[C@@H]4C5)N(C(=O)C4CC4)C3)ccn2)C1 [Example 366]
28 | ≤ 100 | ≤ 100 |  |  | Cc1nc2c(F)c(-c3cccc(Cl)c3Cl)c(CCC#N)cc2c2c1cc([C@H]1C[C@H](Oc3ccn(C(F)F)n3)CN1C(=O)C1CC1)n2[C@H]1[C@H]2CN[C@@H]1C2 [Example 340]
29 | ≤ 100 | ≤ 100 |  |  | Cc1nc2c(F)c(-c3cccc(Cl)c3Cl)c(CCC#N)cc2c2c1cc([C@H]1C[C@H](OC3CC3)CN1C(=O)C1CC1)n2[C@H]1[C@H]2CN[C@@H]1C2 [Example 230]
30 | ≤ 100 | ≤ 100 |  |  | Cc1cccc(O[C@H]2C[C@H](c3cc4c(C)nc5c(F)c(-c6cccc(Cl)c6Cl)c(CCC#N)cc5c4n3[C@H]3C4CNC3C4)N(C(=O)C3CC3)C2)c1 (stereo partly drawn) [Example 134]
